Test results taken from article PMC6175903, “Tuneable poration: host defense peptides as sequence probes for antimicrobial mechanisms” (Scientific Reports, 2018).
Where two headings read alike, the source gives them in different places. Marks after values point to notes of the source that are not given here. Bridge positions count the residues as written; N and C are the ends. Square brackets hold non-standard residues; d marks the D form. Ends that are not written are not given here. Peptide text beside a SMILES is read from it. * marks the point of attachment. X1 = CC[C@H](C)CCCCC(=O)*; Dab = NCC[C@H](N)C(=O)O

Assays:
B. subtilis (ATCC6633) = experiment: microbe, parasite or virus in culture; type: cell-based; settings: read-out: Minimum inhibitory concentrations
Method: (§1) Minimum inhibitory concentrations (MICs) were determined by broth microdilution on P. aeruginosa (ATCC27853), E. coli (K12), S. aureus (ATCC6538), M. luteus (NCIMB13267), B. subtilis (ATCC6633), S. typhimurium (DA6192) and E. faecalis (OG1X) according to the Clinical and Laboratory Standards Institute and as recommended for antimicrobial peptide testing. Typically, 100 μL of 0.5–1 × 10^6 CFU per ml of each bacterium in Mueller Hinton media broth (Oxoid) were incubated in 96-well polystyrene microtiter plates with 100 μL of serial twofold dilutions of the peptides (from 100 to 0 μM) at 37 °C on a 3D orbital shaker. The absorbance was measured after peptide addition at 600 nm using a Victor 2 plate reader (Perkin-Elmer). MICs were defined as the lowest peptide concentration after 24 h at 37 °C. The mutant strains of S. typhimurium, named using the original nomenclature, were kindly provided by Dan Andersson[55].

E. coli (K12) = experiment: microbe, parasite or virus in culture; type: cell-based; settings: read-out: Minimum inhibitory concentrations
Method: as §1

[1] = test system: P. aeruginosa (ATCC27853); experiment: microbe, parasite or virus in culture; type: cell-based; settings: read-out: Minimum inhibitory concentrations
Method: as §1

M. luteus (NCIMB13267) = experiment: microbe, parasite or virus in culture; type: cell-based; settings: read-out: Minimum inhibitory concentrations
Method: as §1, with “Typically, 100 μL of 0.5–1 × 10^6 CFU per ml of each bacterium in Mueller Hinton media broth (Oxoid) were incubated in 96-well polystyrene microtiter plates with 100 μL of serial twofold dilutions of the peptides (from 100 to 0 μM) at 37 °C on a 3D orbital shaker.” left out

S. aureus (ATCC6538) = experiment: microbe, parasite or virus in culture; type: cell-based; settings: read-out: Minimum inhibitory concentrations
Method: as §1, with “Typically, 100 μL of 0.5–1 × 10^6 CFU per ml of each bacterium in Mueller Hinton media broth (Oxoid) were incubated in 96-well polystyrene microtiter plates with 100 μL of serial twofold dilutions of the peptides (from 100 to 0 μM) at 37 °C on a 3D orbital shaker.” left out

S. typhimurium (DA6192) = experiment: microbe, parasite or virus in culture; type: cell-based; settings: 24 h at 37 °C, triplicate, read-out: Minimum inhibitory concentrations
Method: as §1, with “Typically, 100 μL of 0.5–1 × 10^6 CFU per ml of each bacterium in Mueller Hinton media broth (Oxoid) were incubated in 96-well polystyrene microtiter plates with 100 μL of serial twofold dilutions of the peptides (from 100 to 0 μM) at 37 °C on a 3D orbital shaker.” left out

[2] = test system: S. typhimurium DA22427 waaY (del bp17FS); experiment: microbe, parasite or virus in culture; type: cell-based; settings: for MIC: Salmonella enterica, TYPHIMURIUM, 24 h, read-out: Minimum inhibitory concentrations; for Minimum inhibitory concentrations: S. typhimurium mutant DA22427 waaY (del bp17FS), broth microdilution, 24 h at 37 °C, triplicate
Method: (§2) To explore these variations, the peptides were tested against cross-resistant strains of S. typhimurium, which were experimentally derived from the wild type bacterium subjected to increasing concentrations of pore-forming human HDPs[55]. Three genetic mutations were selected as candidate contributors to resistance and were reconstituted in the wild type genetic background, giving rise to the strains given in Table 2. One strain has the waaY gene mutated. This gene encodes for WaaY kinase that adds a phosphate group to the heptose II residue in the LPS inner core. The deactivation of the gene leads to decreased susceptibility to HDPs[56], as a result of reducing peptide binding to cell surfaces to the levels below those necessary to lyse the bacterium. Two other strains were mutated in pmrB and phoP genes, both of which are involved in masking phosphate groups (diminished charge) and influencing membrane fluidity (restricted motion)[58]. Finally, the fourth strain combined all three mutations (Table 2).
as §1

[3] = test system: S. typhimurium DA23899 waaY, pmrB, phoP; experiment: microbe, parasite or virus in culture; type: cell-based; settings: for MIC: Salmonella enterica, TYPHIMURIUM, 24 h, read-out: Minimum inhibitory concentrations; for Minimum inhibitory concentrations: S. typhimurium mutant DA23899 waaY, pmrB, phoP, broth microdilution, 24 h at 37 °C, triplicate
Method: as §2, §1

human erythrocytes = settings: for LC50, median (50%) lethal concentration: human erythrocytes; for hemolysis: 250 µM
Method: Hemolysis was determined by incubating a 10% (vol/vol) suspension of human erythrocytes with peptides. Erythrocytes were rinsed four times in 10 mM phosphate buffer saline (PBS), pH 7.2, by repeated centrifugation and re-suspension (3 min at 3000 × g). Erythrocytes were incubated at room temperature for 1 h in either deionized water (fully haemolysed control), PBS, or with peptide in PBS. After centrifugation at 10,000 × g for 5 min, the supernatant was separated from the pellet, and the absorbance was measured at 550 nm. Absorbance of the suspension treated with deionized water defined complete hemolysis. […] All tests were done in triplicate.

[4] = test system: S. typhimurium DA23175 pmrB (R13H); type: cell-based; settings: S. typhimurium mutant DA23175 pmrB (R13H); broth microdilution, 24 h at 37 °C, triplicate
Method: as §2, §1

[5] = test system: S. typhimurium DA23307 phoP (D23N); type: cell-based; settings: S. typhimurium mutant DA23307 phoP (D23N); broth microdilution, 24 h at 37 °C, triplicate
Method: as §2, §1

[6] = for comparison, naturally occurring HDPs; cited from earlier work
Method: The improved amphipathicity of CecM compared to CecB was evaluated by calculating the mean hydrophobic moment using HeliQuest[70]. The mean hydrophobic moment is a two-dimensional vector sum which provides a direct, quantitative measure of amphipathicity in regular repeats. The mean hydrophobic moment increases from CecB (0.296) to CecM (0.350). For comparison, values for PGLa and magainin, two naturally occurring HDPs, are 0.260 and 0.286, respectively. Percentage of secondary structure elements was calculated using STRIDE[73]. Oligomerisation simulations were performed over 500 ns fo ...

[7] = S. typhimurium DA6192 (wild type, Table 2), broth microdilution
[8] = 10% (vol/vol) suspension in PBS pH 7.2, 1 h at room temperature, absorbance 550 nm, triplicate (Table 1)
[9] = M. luteus, broth microdilution (CLSI), Mueller Hinton broth, 24 h at 37 °C, absorbance 600 nm, triplicate
[10] = S. typhimurium (Table 1), broth microdilution (CLSI), Mueller Hinton broth, absorbance 600 nm
[11] = E. coli, Ala-d3 ChoM mutants (Table S6), broth microdilution
[12] = P. aeruginosa, Ala-d3 ChoM mutants (Table S6), broth microdilution
[13] = S. aureus, Ala-d3 ChoM mutants (Table S6), broth microdilution

For CO/N=C(\C(=O)N[C@@H]1C(=O)N2C(C(=O)O)=C(CSc3nc(=O)c(=O)[nH]n3C)CS[C@H]12)c1csc(N)n1 [ceftriaxone], the MIC (B. subtilis (ATCC6633); Bacillus subtilis, ATCC6633, B. subtilis, broth microdilution (CLSI), Mueller Hinton broth, serial twofold dilutions 100 to 0 μM, 24 h at 37 °C, absorbance 600 nm, triplicate) was < 1 µM, the MIC (E. coli (K12); Escherichia coli, E. coli, broth microdilution (CLSI), Mueller Hinton broth, serial twofold dilutions 100 to 0 μM, 24 h at 37 °C, absorbance 600 nm, triplicate) was < 6 µM and the MIC ([1]; Pseudomonas aeruginosa, ATCC27853, P. aeruginosa, broth microdilution (CLSI), Mueller Hinton broth, serial twofold dilutions 100 to 0 μM, 24 h at 37 °C, absorbance 600 nm, triplicate) was > 25 µM. For the same compound, the MIC (M. luteus (NCIMB13267); Micrococcus luteus, NCIMB13267, M. luteus, broth microdilution (CLSI), Mueller Hinton broth, 24 h at 37 °C, absorbance 600 nm, triplicate) was < 0.5 µM, the MIC (S. aureus (ATCC6538); Staphylococcus aureus, ATCC6538, S. aureus, broth microdilution (CLSI), Mueller Hinton broth, serial twofold dilutions 100 to 0 μM, 24 h at 37 °C, absorbance 600 nm, triplicate) was < 3 µM and the MIC (S. typhimurium (DA6192); [7]) was <1 µM. For the same compound, the MIC (S. typhimurium (DA6192); Salmonella enterica, S. typhimurium (Table 1), broth microdilution (CLSI), Mueller Hinton broth, absorbance 600 nm) was < 1 µM, the MIC [2] was < 1 µM and the MIC [3] was < 1 µM. For the same compound, the “LC50, median (50%) lethal concentration” value (human erythrocytes; [8]) was “UD (UD is for undetectable (>1000))”.
With CCCCCCCCCC(=O)N[C@@H](Cc1c[nH]c2ccccc12)C(=O)N[C@H](CC(N)=O)C(=O)N[C@@H](CC(=O)O)C(=O)N[C@@H]1C(=O)NCC(=O)N[C@@H](CCCN)C(=O)N[C@@H](CC(=O)O)C(=O)N[C@H](C)C(=O)N[C@@H](CC(=O)O)C(=O)NCC(=O)N[C@H](CO)C(=O)N[C@@H]([C@H](C)CC(=O)O)C(=O)N[C@@H](CC(=O)c2ccccc2N)C(=O)O[C@@H]1C [daptomycin] the MIC (B. subtilis (ATCC6633); B. subtilis, broth microdilution (CLSI), Mueller Hinton broth, serial twofold dilutions 100 to 0 μM, 24 h at 37 °C, absorbance 600 nm, triplicate) was <7 µM, the MIC (M. luteus (NCIMB13267); [9]) was <15 µM and the MIC (S. typhimurium (DA6192); [10]) was >60 µM. For the same compound, the hemolysis (human erythrocytes; pH 7.2) was 10% and the “LC50, median (50%) lethal concentration” value (human erythrocytes; [8]) was >250^c µM.
With CC[C@H](C)CCCCC(=O)N[C@@H](CCN)C(=O)N[C@H](C(=O)N[C@@H](CCN)C(=O)N[C@H]1CCNC(=O)[C@H]([C@@H](C)O)NC(=O)[C@H](CCN)NC(=O)[C@H](CCN)NC(=O)[C@H](CC(C)C)NC(=O)[C@@H](Cc2ccccc2)NC(=O)[C@H](CCN)NC1=O)[C@@H](C)O [polymyxin B] (X1-[Dab]T[Dab][Dab][Dab][dF]L[Dab][Dab]T; lactam 4-C (inferred); N-terminus assumed) the MIC (S. typhimurium (DA6192); [7]) was <0.5 µM, the Minimum inhibitory concentrations [2] was <0.5 µM and the Minimum inhibitory concentrations [3] was <6 µM. For the same compound, the Minimum inhibitory concentrations [4] was <0.5 µM and the Minimum inhibitory concentrations [5] was <2 µM.
In the case of CN(C)[C@@H]1C(O)=C(C(N)=O)C(=O)[C@@]2(O)C(O)=C3C(=O)c4c(O)cccc4[C@@](C)(O)[C@H]3C[C@@H]12 [tetracycline], the MIC (B. subtilis (ATCC6633); Bacillus subtilis, ATCC6633, 24 h) is reported as < 0.5 µM, the MIC (E. coli (K12); Escherichia coli, 24 h) is reported as < 1.5 µM and the MIC ([1]; Pseudomonas aeruginosa, ATCC27853, 24 h) is reported as < 6 µM. The MIC (M. luteus (NCIMB13267); Micrococcus luteus, NCIMB13267, 24 h) was < 0.5 µM, the MIC (S. aureus (ATCC6538); Staphylococcus aureus, ATCC6538, 24 h) was < 0.5 µM and the MIC (S. typhimurium (DA6192); [10]) was <1 µM. For the same compound, the MIC (S. typhimurium (DA6192); Salmonella enterica, S. typhimurium DA6192 (wild type, Table 2), broth microdilution) was < 1 µM, the MIC [2] was < 1 µM and the MIC [3] was < 1 µM. The “LC50, median (50%) lethal concentration” value (human erythrocytes; [8]) was “UD (UD is for undetectable (>1000))”.
In the case of KWKAFKKIEKMIRNIRNKIVK [V4A], the MIC (E. coli (K12); [11]) is reported as > 3 µM, the MIC [1, 12] is reported as > 3 µM and the MIC (S. aureus (ATCC6538); [13]) is reported as > 12 µM. For the same compound, the hemolysis (human erythrocytes) was 1-2% and the “LC50, median (50%) lethal concentration” value (human erythrocytes; Ala-d3 ChoM mutants (Table S6)) was > 250 µM.
In the case of KWKVFKKAEKMIRNIRNKIVK [I8A], the MIC (E. coli (K12); [11]) is reported as > 3 µM, the MIC [1, 12] is reported as > 6 µM and the MIC (S. aureus (ATCC6538); [13]) is reported as > 25 µM. For the same compound, the “LC50, median (50%) lethal concentration” value (human erythrocytes; Ala-d3 ChoM mutants (Table S6)) was > 250 µM.
With KWKVFKKIEKMGRNIRNGIVK-NH2 [ChoC] the MIC (M. luteus (NCIMB13267); [9]) was <1 µM, the MIC (S. typhimurium (DA6192); [10]) was >12 µM and the MIC (S. typhimurium (DA6192); [7]) was >12 µM. The Minimum inhibitory concentrations [2] was >12 µM, the Minimum inhibitory concentrations [3] was >25 µM and the Minimum inhibitory concentrations [4] was >25 µM. The Minimum inhibitory concentrations [5] was >25 µM and the “LC50, median (50%) lethal concentration” value (human erythrocytes; [8]) was >250^d µM.
With “KWKVFKKIEKMGRNIRNGIVKAGPAIAVLGEAKAL-NH2 [CecB, Cecropin B]” the MIC (M. luteus (NCIMB13267); [9]) was <1 µM, the MIC (S. typhimurium (DA6192); [10]) was <3 µM and the MIC (S. typhimurium (DA6192); [7]) was <3 µM. For the same compound, the Minimum inhibitory concentrations [2] was <3 µM, the Minimum inhibitory concentrations [3] was >6 µM and the Minimum inhibitory concentrations [4] was <3 µM. The Minimum inhibitory concentrations [5] was <3 µM and the “LC50, median (50%) lethal concentration” value (human erythrocytes; [8]) was >250^d µM.
With “KWKVLKKKIKMLRNRINGLVKAGPALKVKLQALAL-NH2 [CecM]” the MIC (M. luteus (NCIMB13267); [9]) was <1 µM, the MIC (S. typhimurium (DA6192); [10]) was <1 µM and the MIC (S. typhimurium (DA6192); [7]) was <1 µM. The Minimum inhibitory concentrations [2] was <1 µM, the Minimum inhibitory concentrations [3] was <2 µM and the Minimum inhibitory concentrations [4] was <1 µM. For the same compound, the Minimum inhibitory concentrations [5] was <2 µM and the “LC50, median (50%) lethal concentration” value (human erythrocytes; [8]) was >250^d µM.
In the case of PGLa, the mean hydrophobic moment [6] is given as 0.260.
In the case of magainin, the mean hydrophobic moment [6] is given as 0.286.
